{
  "source": "patent US20220265629A1",
  "about": "“TREATMENT OF SYSTOLIC DYSFUNCTION AND HEART FAILURE WITH REDUCED EJECTION FRACTION WITH THE COMPOUND (R)-4-(1-((3-(DIFLUOROMETHYL)-1-METHYL-1H-PYRAZOL-4-YL)SULFONYL)-1-FLUOROETHYL)-N-(ISOXAZOL-3-YL)PIPERIDINE-1-CARBOXAMIDE” (MyoKardia, Inc., priority 2019, published 2022)",
  "assay": "HFrEF study Part 2 (MAD Cohorts A-D): plasma pharmacokinetics",
  "assay_type": "in vivo, human",
  "conditions": "for AUC_TAU: steady state",
  "text": "This was a randomized, parallel-group, DB, placebo-controlled, adaptive design, sequential ascending (oral) multiple-close study in stable patients with heart failure. Four MAD Cohorts (A, B, C, D) were enrolled (FIG. 5B). An SRC reviewed results from each cohort and determined the close and confirmed initial sample size for the subsequent cohort. Additionally, the first 3 patients in each cohort had LVEF≥25%; the SRC reviewed preliminary safety data from these patients and decided whether to open cohort enrollment to patients with LVEF<25%.\nAfter Screening and qualification, patients were confined to a clinical testing facility from Day 1 (Check-in) to Day 11. Each patient initially received placebo BID for 2 days (Days 1 and 2) in single-blinded manner (“run-in” during acclimatization to confinement in the Clinical Testing Unit) prior to receiving the randomized DB study drug treatment on Day 3. All patients then received either placebo or active Compound I for 7 days (Days 3 through 9), with a follow-up period with patients discharged from the unit on Day 11. A final follow-up clinic visit was conducted on Day 16. More than one patient could be closed in a cohort at the same time or during the same week depending on administrative issues, i.e., capacity and scheduling.\nPatients were closed twice daily (every 12 hours). Doses could occur±2 hours from scheduled dosing times as long as closes were separated by at least 10 hours and by no more than 14 hours. The exception to the twice daily dosing was on Day 9 (last dose of randomized DB study drug treatment). On Day 9, a single morning close was administered.\nDuring the study, multiple evaluations were performed that included: serial TTE assessments (11-14 TTEs per patient on Days 1, 2, 3, 4, 7, 9, 10 and 11); PK sampling (PK sample collected concomitantly with every post-randomization echocardiogram); ECGs (on Days 2, 3, 4, 7, 9, 10, 11 and 16); troponin (collected concomitantly with every post-randomization ECG); and safety laboratory assessments. Confined patients underwent continuous telemetry. Holter monitoring was performed in all patients at baseline (Days 1-2) and at the end of double-blind treatment (Days 7-9). Vital signs were collected daily.\nStudy medication consisted of Compound I 5 mg tablets, 25 mg tablets, 100 mg tablets, or matching placebo tablets. In Part 1 (SAD), Compound I or placebo was administered after an overnight fast (at least 6 hours), while in Part 2 (MAD), Compound I was administered after a 2 hour fast (Cohort A) or with food (Cohorts B, C, and D). The close was ingested with a minimum of 240 mL of water, but more water was ingested as needed. The entire close was administered over a period of up to 15 minutes. The time of close used to determine future assessments was the time the last tablet was taken. In the cohorts for Part 2 (MAD), a BID regimen was used.\nIn Part 2 (MAD), Cohort A patients fasted for 2 hours before and 2 hours after dosing. For example, if morning dosing occurred at 8 AM, patients could have a snack at 6 AM and a full breakfast at 10 AM. If afternoon dosing occurred at 8 PM, patients could have dinner at 6 PM and a snack at 10 PM. […] Cohort B, C, and D patients ingested food with each close.",
  "key": {"[1]": {"conditions": "Cohort A + C (n = 14), 75 mg BID"}, "[2]": {"conditions": "MAD Cohort A, 75 mg BID (4 h fasting), Mean"}, "[3]": {"conditions": "MAD Cohort A, 75 mg BID (4 h fasting), individual subjects"}, "[4]": {"conditions": "MAD Cohort B, 50 mg BID (with food), Mean"}, "[5]": {"conditions": "MAD Cohort B, 50 mg BID (with food), individual subjects"}, "[6]": {"conditions": "MAD Cohort C, 75 mg BID (with food), Mean"}, "[7]": {"conditions": "MAD Cohort C, 75 mg BID (with food), individual subjects"}},
  "note": "Where “and” joins values, the source holds several entries; their conditions need not be identical. Identical values can stand only once.",
  "data": [
    {"smiles": "Cn1cc(S(=O)(=O)[C@@](C)(F)C2CCN(C(=O)Nc3ccon3)CC2)c(C(F)F)n1", "note": "[Compound I, (R)-4-(1-((3-(difluoromethyl)-1-methyl-1H-pyrazol-4-yl)sulfonyl)-1-fluoroethyl)-N-(isoxazol-3-yl)piperidine-1-carboxamide]", "values": [
      {"measurement": "Post-dose maximum concentration, steady-state (Day 9) plasma", "setting": "[1]", "result": "3862 (27.7%) ng/mL"},
      {"measurement": "Pre-dose concentration, steady-state (Day 9) plasma", "setting": "[1]", "result": "2930 (36.8%) ng/mL"},
      {"measurement": "time to steady-state plasma concentrations", "setting": "Cohort A, 75 mg twice daily, fasted", "result": "approximately 3 days"},
      {"measurement": "Post-dose maximum concentration, steady-state (Day 9) plasma", "setting": "Cohort B (n = 8), 50 mg BID", "result": "2735 (17.5%) ng/mL"},
      {"measurement": "Pre-dose concentration, steady-state (Day 9) plasma", "setting": "Cohort B (n = 8), 50 mg BID", "result": "2096 (20.0%) ng/mL"},
      {"measurement": "time to steady-state plasma concentrations", "setting": "Cohort B, 50 mg twice daily with food", "result": "approximately 4 days"},
      {"measurement": "Post-dose maximum concentration, steady-state (Day 9) plasma", "setting": "Cohort D (n = 6), 100 mg BID", "result": "5560 (22.8%) ng/mL"},
      {"measurement": "Pre-dose concentration, steady-state (Day 9) plasma", "setting": "Cohort D (n = 6), 100 mg BID", "result": "4694 (25.5%) ng/mL"},
      {"measurement": "Accumulation Ratio AUC tau", "setting": "[2]", "result": 3.74},
      {"measurement": "Accumulation Ratio Cmax", "setting": "[2]", "result": 3.53},
      {"measurement": "Accumulation_Index", "setting": "[2]", "result": 3.11},
      {"measurement": "Cavg, ss", "setting": "[2]", "result": 3420, "unit": "ng/mL"},
      {"measurement": "Cmin, SS", "setting": "[2]", "result": 2758, "unit": "ng/mL"},
      {"measurement": "AUCtau, Day 1", "setting": "[3]", "result": "12360 ng·h/mL and 8025 ng·h/mL and 9501 ng·h/mL and 11570 ng·h/mL"},
      {"measurement": "Accumulation Ratio AUC tau", "setting": "[3]", "result": "4.37 and 3.96 and 3.15* and 2.80 and 4.27 and 3.31"},
      {"measurement": "Accumulation Ratio Cmax", "setting": "[3]", "result": "4.32 and 3.46 and 2.51* and 2.80 and 4.06 and 2.99"},
      {"measurement": "Accumulation_Index", "setting": "[3]", "result": "3.82 and 3.89 and 2.79* and 2.21 and 3.00 and 2.61"},
      {"measurement": "Cavg, ss", "setting": "[3]", "result": "3846 ng/mL and 4079 ng/mL and 2108* ng/mL and 2215 ng/mL and 3774 ng/mL and 3188 ng/mL"},
      {"measurement": "Cmax, Day 1", "setting": "[3]", "result": "1360 ng/mL and 958 ng/mL and 981 ng/mL and 1100 ng/mL and 1250 ng/mL"},
      {"measurement": "Cmax, SS", "setting": "[3]", "result": "4710 ng/mL and 2400* ng/mL and 2750 ng/mL and 4470 ng/mL and 3740 ng/mL"},
      {"measurement": "Cmin, SS", "setting": "[3]", "result": "3050 ng/mL and 3510 ng/mL and 1450* ng/mL and 1740 ng/mL and 2880 ng/mL and 2610 ng/mL"},
      {"measurement": "t1/2, λz", "setting": "[3]", "result": "27.41 hr and 28.02 hr and 18.78* hr and 13.84 hr and 20.55 hr and 17.21 hr"},
      {"measurement": "AUC_TAU", "setting": "[3]", "result": "48950 hr*ng/mL and 25290* hr*ng/mL and 26580 hr*ng/mL and 45290 hr*ng/mL and 38250 hr*ng/mL"},
      {"measurement": "Accumulation Ratio AUC tau", "setting": "[4]", "result": 4.09},
      {"measurement": "Accumulation Ratio Cmax", "setting": "[4]", "result": 3.57},
      {"measurement": "Accumulation_Index", "setting": "[4]", "result": 3.55},
      {"measurement": "Cavg, ss", "setting": "[4]", "result": 2336, "unit": "ng/mL"},
      {"measurement": "Cmin, SS", "setting": "[4]", "result": 1989, "unit": "ng/mL"},
      {"measurement": "AUCtau, Day 1", "setting": "[5]", "result": "5050 ng·h/mL and 6754 ng·h/mL and 8138 ng·h/mL and 8855 ng·h/mL and 7249 ng·h/mL and 6347 ng·h/mL and 8620 ng·h/mL"},
      {"measurement": "Accumulation Ratio AUC tau", "setting": "[5]", "result": "4.00 and 6.37 and 5.22 and 3.26 and 4.07 and 3.30 and 3.63 and 2.88"},
      {"measurement": "Accumulation Ratio Cmax", "setting": "[5]", "result": "3.16 and 5.33 and 4.78 and 3.08 and 4.02 and 2.64 and 3.05 and 2.51"},
      {"measurement": "Accumulation_Index", "setting": "[5]", "result": "3.63 and 5.03 and 4.46 and 2.93 and 3.51 and 2.42 and 3.20 (2×) and 4.23*"},
      {"measurement": "Cavg, ss", "setting": "[5]", "result": "2478 ng/mL and 2681 ng/mL and 2940 ng/mL and 2213 ng/mL and 3002 ng/mL and 1991 ng/mL and 1919 ng/mL and 2070 ng/mL and 1725* ng/mL"},
      {"measurement": "Cmax, Day 1", "setting": "[5]", "result": "548 ng/mL and 674 ng/mL and 830 ng/mL and 891 ng/mL and 901 ng/mL and 696 ng/mL and 974 ng/mL"},
      {"measurement": "Cmax, SS", "setting": "[5]", "result": "2920 ng/mL and 3220 ng/mL and 2560 ng/mL and 3580 ng/mL and 2380 ng/mL and 2120 ng/mL and 2440 ng/mL and 2060* ng/mL"},
      {"measurement": "Cmin, SS", "setting": "[5]", "result": "1900 ng/mL and 2380 ng/mL and 2640 ng/mL and 1810 ng/mL and 2370 ng/mL and 1440 ng/mL and 1720 ng/mL and 1650 ng/mL and 1320* ng/mL"},
      {"measurement": "t1/2, λz", "setting": "[5]", "result": "25.81 hr and 37.48 hr and 32.77 hr and 19.93 hr and 24.77 hr and 15.57 hr and 22.23 hr and 22.21 hr and 30.87* hr"},
      {"measurement": "AUC_TAU", "setting": "[5]", "result": "32170 hr*ng/mL and 35280 hr*ng/mL and 26560 hr*ng/mL and 36030 hr*ng/mL and 23890 hr*ng/mL and 23030 hr*ng/mL and 24840 hr*ng/mL and 20700* hr*ng/mL"},
      {"measurement": "Accumulation Ratio AUC tau", "setting": "[6]", "result": 3.99},
      {"measurement": "Accumulation Ratio Cmax", "setting": "[6]", "result": 3.28},
      {"measurement": "Accumulation_Index", "setting": "[6]", "result": 3.18},
      {"measurement": "Cavg, ss", "setting": "[6]", "result": 3357, "unit": "ng/mL"},
      {"measurement": "Cmin, SS", "setting": "[6]", "result": 2812, "unit": "ng/mL"},
      {"measurement": "AUCtau, Day 1", "setting": "[7]", "result": "13270 ng·h/mL and 8280 ng·h/mL and 10790 ng·h/mL and 9731 ng·h/mL and 6976 ng·h/mL and 9166 ng·h/mL and 14840 ng·h/mL and 11840 ng·h/mL"},
      {"measurement": "Accumulation Ratio AUC tau", "setting": "[7]", "result": "2.44 and 1.90 and 3.48 and 4.61 and 7.62 and 3.88 and 2.59 and 4.85 and 4.53"},
      {"measurement": "Accumulation Ratio Cmax", "setting": "[7]", "result": "2.17 and 1.80 and 3.20 and 4.06 and 4.80 and 2.80 and 2.38 and 4.63 and 3.68"},
      {"measurement": "Accumulation_Index", "setting": "[7]", "result": "2.18 and 2.39 and 2.99 and 3.31 and 5.51 and 2.43 and 2.20 and 4.17 and 3.42"},
      {"measurement": "Cavg, ss", "setting": "[7]", "result": "2695 ng/mL and 1308 ng/mL and 3126 ng/mL and 3738 ng/mL and 4432 ng/mL and 2963 ng/mL and 3206 ng/mL and 4267 ng/mL and 4474 ng/mL"},
      {"measurement": "Cmax, Day 1", "setting": "[7]", "result": "1020 ng/mL and 1190 ng/mL and 1030 ng/mL and 1150 ng/mL and 1650 ng/mL and 1360 ng/mL"},
      {"measurement": "Cmax, SS", "setting": "[7]", "result": "3860 ng/mL and 1840 ng/mL and 3810 ng/mL and 4140 ng/mL and 4940 ng/mL and 3220 ng/mL and 3930 ng/mL and 4720 ng/mL and 5010 ng/mL"}
    ]}
  ]
}
